Test results: US20060121441A1, “Methods of determining the effect of an agent on diploid cells and/or on the pattern of expression of polypeptides expressed therewith” (priority 2002, published 2006)

What was measured:
Format in all cases: cell-based, Aplysia californica
EB3 association with MTs = assay: Confocal imaging of EGFP-EB3 and microtubules in cultured neurons; settings: EGFP-EB3-expressing neurons
Source text: (§1) Cell culture—Neurons B1 and B2 from buccal ganglia, MCn neurons from the metacerebral ganglion, sensory neurons from the pleuropeadal ganglion and LUQs from the abdominal ganglion of Aplysia californica were isolated and maintained in culture as previously described [Schacher and Proshansky, (1983); Spira et al., (1993, 1996)].
Expression constructs—Enzymes were obtained from (New England Biolabs, Beverly, Mass., USA). Each of the chimeric cDNAs of EGFP-EB3, EGFP-p50 and EGFP-MLIV was subcloned into the pCS2+ expression vector as described below [Rupp (1994); Turner and Weintraub (1994)]. For EGFP-EB the pCS2+ vector was cut with XhoI and SnaB. The insert (EGFP-EB3) was cut with NotI, fill in and cut with SalI. For EGFP-P50 the pCS2+ vector was cut with XbaI and the insert was cut with NheI and SpeI.
In-vitro transcription—5′-capped and 3′-polyadenylated mRNA was in vitro transcribed using recombinant in vitro transcription system (Promega, Madison, Wis., USA,). 10 μg of NotI-linearized pCS2+ was used as a template to transcribe capped mRNA. The transcription reaction was effected with RiboMax-sp6 kit (Promrga-P1280). Briefly, a reaction mixture was prepared by mixing 8 μl Transcription ×5 Buffer, 8 μl rNTPs mix containing 25 mM CTP, ATP, UTP and 12 mM GTP, 4 μl of 15 mM Cap analog (Roche 85846029), 1 μl of 40 units rRnasin (Promega N251A), 4 μl enzyme mix and 1-2 μg linear plasmid. Final reaction volume was compensated to 40 μl. […]
Mag-fura-2 Ca^2+ imaging—To study the local effect of elevated calcium levels on the distribution of a given fluorescentlly labled protein ratio imaging of the free intracellular calcium concentration was effected by mag fura-2. […] The fluorescence microscopy system consisted of a Zeiss Axiovert microscope equipped with a 75 W Xenon arc lamp, a Zeiss 40×0.75 NA Plan-Neofluar objective, 340±5 nm and 380±5 nm bandpass excitation filters set in a computer-controlled, Lambda10 position filter changer (Sutter, Novato Calif.), a dichroic mirror with a cut-off threshold of 505 nm and a 545±25 nm band pass emission filter. […]

[1] = system: actin bundles at the leading edge of growth cones; assay: Confocal imaging of EGFP-actin bundles in growth cones of cultured neurons injected with mRNA encoding EGFP-actin
Source text: as §1
EGFP cDNA was amplified from pEGFP-N1 vector (Clontech, Palo-Alto, Calif., USA) by polymerase chain reaction (PCR) with two specific primers: 5′-GGCCATGGTGAGCAAGG-3′ and 5′-CTTGTACAGCTCGTCCATG-3′(Genset Oligos) (SEQ ID NOs: 1 and 2, respectively). The PCR product was digested with HindII and SmaI and subcloned into corresponding sites of Bluescript II SK (Stratagen, La Jolla, Calif.). Aplysia actin provided by Dr DesGrosiller (Montreal University, Canada) was amplified by PCR from Bluescript containing the actin cDNA using two specific primers: 5′-ATGTGTGACGACGATGTT-3′ and 5′-TTAGAAGCACTTGCGGTCG-3′ (SEQ ID NOs: 3 and 4, respectively) with SmaI and XbaI restriction sites at their 5′ ends. Following digestion, the PCR product was subcloned in-frame with EGFP into the previously prepared pBluescript-EGFP vector linearized with SmaI and XbaI. The EGFP-Actin fragment was then cut out from pBluescript with ClaI and XbaI and subcloned into corresponding sites of pCS2+ vector [Rupp (1994); Turner and Weintraub (1994) supra]. […]

microtubules = assay: Confocal imaging of EGFP-tubulin labelled microtubules in axotomy-induced growth cone of cultured neurons
Experimental: mRNA microinjection—mRNA was injected into the cytoplasm of Aplysia neurons bathed in ASW 8-48 hours following plating. 0.5-5 μg/μl mRNA in 80 mM KCl was used for injection. Injection was performed by pressure using Medical System Corp microinjector inserted into the cell body under visual control. Approximately up to 10% of the cell's body volume was injected. […] Good penetration was indicated by a resting potential of >−35 mV and measuring a typical input resistance. At the end of the injection, the micropipette tip was pooled out gently of the neuron. Cells were imaged for protein expression 12-48 hours following injection.
Axotomy—Axonal transection was performed by applying pressure on the axon with the thin shaft of a micropipette under visual control, as previously described [Spira et al., 1993, 1996; Ziv and Spira, (1993)].

CCCC[C@@H](C=O)NC(=O)[C@H](CC(C)C)NC(=O)OCc1ccccc1 [calpeptin]
effect on MTs and EB3 association with MTs (EB3 association with MTs): induces milled dissociation of EB3 from the MTs

C=C1[C@@H](C)[C@H]2[C@H](Cc3ccccc3)NC(=O)[C@]23OC(=O)/C=C/[C@H](O)CCC[C@@H](C)C/C=C/[C@H]3[C@@H]1O [cytochalasin B]
effect on EGFP labeled actin bundles at the leading edge of growth cones ([1]; cultured B1 neuron, nine minutes following bath application of 2 mM): actin bundles disassembly and the formation of small actin aggregates within the collapsed growth cones and the axoplasm
depolymerisation of fluorescent actin bundles after application ([1]; growth cone formed after axotomy, FIGS. 3a-b): depolymerised within minutes

C[C@H](CCC(=O)O)C[C@H](C)C[C@H](C)C(=O)/C=C(\O)[C@H](C)C[C@H](C)C/C=C/[C@@H](C)[C@@H](O)[C@@H](C)[C@@H](O)C[C@@H]1CC[C@@](C)([C@H]2CC[C@@](C)([C@@H](C)O)O2)O1 [ionomycin]
mimicry of the axotomy-induced MT depolymerization/repolymerization and vesicle trap process by local elevation of [Ca2+]i (EB3 association with MTs; local application): able to mimic the process

COC(=O)Nc1nc2ccc(C(=O)c3cccs3)cc2[nH]1 [nocodazole]
effect on EGFP-tubulin microtubules in growth cone lamellipodium (microtubules; bath application 5 mM for 5 min): depolymerisation of most microtubules
effect on EGFP labelled microtubules within growth cone (microtubules; cultured B1 neuron, twenty three minutes following bath application of 5 mM): microtubules depolymerise
effect on MTs and EB3 association with MTs (EB3 association with MTs): induces MTs deplymerization and dissociation of EB3 from the MTs
